Measurements from ChEMBL document CHEMBL1130530, “3D QSAR analysis of taxoids from Taxus cuspidata var. nana by comparative molecular field approach” (Bioorg Med Chem Lett, 1997).

system: P388; assay: Actual inhibitory activity in P388 leukemia cells by CoMFA analysis, expressed as log 1/IC50.; format: functional, cell-based; conditions: Mus musculus, P388, read-out: Log 1/IC50 (converted)

In order of rising IC50:
1. C=C1[C@@H](OC(=O)/C=C/c2ccccc2)C[C@H](OC(C)=O)[C@@]2(C)[C@@H](OC(C)=O)[C@H](OC(C)=O)C3=C(C)C(=O)C[C@@H]([C@@H](OC(C)=O)[C@H]12)C3(C)C  10 nM
2. C=C1[C@@H](OC(=O)/C=C/c2ccccc2)CC[C@@]2(C)[C@@H](OC(C)=O)[C@H](OC(C)=O)C3=C(C)C(=O)C[C@@H]([C@@H](OC(C)=O)[C@H]12)C3(C)C  10 nM
3. CC(=O)O[C@H]1C[C@@]2(O)[C@@H](OC(C)=O)[C@@H]3[C@@]4(CO4)[C@@H](OC(C)=O)C[C@H](OC(C)=O)[C@@]3(C)[C@@H](OC(C)=O)[C@H](OC(C)=O)C(=C1C)C2(C)C  10 nM
4. C=C1[C@@H](OC(=O)/C=C/c2ccccc2)C[C@H](OC(C)=O)[C@@]2(C)[C@@H](OC(C)=O)[C@H](OC(C)=O)[C@]3(O)[C@@]4(C)CO[C@]3(C)C(=O)C[C@H]4[C@@H](OC(C)=O)[C@H]12 [TAXAGIFINE]  10 nM
5. C=C1[C@H]2C[C@@H]3CC(=O)C(C)=C([C@@H](OC(C)=O)[C@H](OC(C)=O)[C@]2(C)[C@@H](OC(C)=O)C[C@@H]1O)C3(C)C  12.3 nM
6. CC(=O)OC[C@H]1[C@H]2[C@H](O)[C@@H]3C[C@H](OC(C)=O)C(C)=C([C@@H](OC(C)=O)[C@H](OC(C)=O)[C@]2(C)[C@@H](OC(C)=O)C[C@@H]1OC(C)=O)C3(C)C  12.3 nM
7. C=C1[C@@H](O)C[C@H](OC(C)=O)[C@@]2(C)[C@@H](OC(C)=O)[C@H](OC(C)=O)C3=C(C)[C@@H](OC(C)=O)C[C@@H]([C@@H](OC(C)=O)[C@H]12)C3(C)C [DECINNAMOYLTAXININE J]  12.6 nM
8. CC(=O)O[C@H]1[C@@H]2[C@H](CO)[C@@H](OC(C)=O)C[C@H](OC(C)=O)[C@@]2(C)[C@@H](OC(C)=O)[C@H](OC(C)=O)C2=C(C)[C@@H](OC(C)=O)C[C@@H]1C2(C)C  14.1 nM
9. C=C1[C@@H](OC(C)=O)CC[C@@]2(C)[C@@H](OC(C)=O)[C@H](OC(C)=O)C3=C(C)[C@@H](OC(C)=O)C[C@@H]([C@@H](OC(C)=O)[C@H]12)C3(C)C  16.6 nM
10. CCCCCCC(=O)N[C@@H](c1ccccc1)[C@@H](O)C(=O)O[C@H]1C[C@@]2(O)[C@@H](OC(=O)c3ccccc3)[C@@H]3[C@]4(OC(C)=O)CO[C@@H]4C[C@H](O)[C@@]3(C)C(=O)[C@H](OC(C)=O)C(=C1C)C2(C)C  18.2 nM
11. CC(=O)O[C@H]1C(=O)[C@@]2(C)[C@H]([C@H](OC(=O)c3ccccc3)[C@]3(O)C[C@H](OC(=O)[C@H](O)[C@@H](NC(=O)c4ccccc4)c4ccccc4)C(C)=C1C3(C)C)[C@]1(OC(C)=O)CO[C@@H]1C[C@@H]2O [PACLITAXEL]  21.9 nM
12. C=C1[C@H]2C[C@]3(O)C[C@H](O)C(C)=C([C@@H](OC(C)=O)[C@H](OC(C)=O)[C@]2(C)[C@@H](OC(=O)c2ccccc2)C[C@@H]1O)C3(C)C  25.1 nM
13. C=C1[C@@H](O)C[C@H](OC(C)=O)[C@@]2(COC(=O)c3ccccc3)[C@@H](OC(C)=O)[C@H](OC(C)=O)[C@]3(O)[C@@]4(C)CO[C@]3(C)C(=O)C[C@H]4[C@@H](OC(C)=O)[C@H]12 [TAXININ M]  26.9 nM
14. CC(=O)O[C@H]1C[C@@]2(O)[C@@H](OC(=O)c3ccccc3)[C@@H]3[C@]4(OC(C)=O)CO[C@@H]4C[C@H](O)[C@@]3(C)[C@@H](O)[C@H](O)C(=C1C)C2(C)C  28.9 nM
15. CCCCCC(=O)N[C@@H](c1ccccc1)[C@@H](O)C(=O)O[C@H]1C[C@@]2(O)[C@@H](OC(=O)c3ccccc3)[C@@H]3[C@]4(OC(C)=O)CO[C@@H]4C[C@H](O)[C@@]3(C)C(=O)[C@H](O)C(=C1C)C2(C)C [10-DEACETYLTAXAYUNNANINE A]  40.8 nM
16. CC(=O)O[C@@]12CO[C@@H]1C[C@H](O)[C@@]1(C)C(=O)[C@H](O)C3=C(C)[C@@H](OC(=O)[C@H](O)[C@@H](NC(=O)c4ccccc4)c4ccccc4)C[C@@](O)([C@@H](OC(=O)c4ccccc4)[C@H]21)C3(C)C  42.7 nM
17. C=C1[C@H]2C[C@@H]3C[C@H](OC(C)=O)C(C)=C([C@@H](OC(C)=O)[C@H](OC(C)=O)[C@]2(C)[C@@H](OC(C)=O)C[C@@H]1O)C3(C)C  43.7 nM
18. CC(=O)O[C@@H]1C2=C(C)C(=O)C[C@@](O)([C@@H](OC(=O)c3ccccc3)[C@@H]3[C@]4(OC(C)=O)CO[C@@H]4C[C@H](O)[C@@]3(C)[C@H]1O)C2(C)C  47.9 nM
19. CC(=O)O[C@H]1C[C@H]2[C@@H](OC(C)=O)CC3C[C@](C)(C(=O)[C@H](O)C(=C1C)C2(C)C)[C@@H](O)C[C@@H]3OC(=O)/C=C/c1ccccc1  47.9 nM
20. CC(=O)O[C@H]1C[C@@]2(O)[C@@H](OC(=O)c3ccccc3)[C@@H]3[C@]4(OC(C)=O)CO[C@@H]4C[C@H](O)[C@@]3(C)[C@@H](O)[C@H](OC(C)=O)C(=C1C)C2(C)C  52.5 nM
21. C=C1[C@H]2C[C@@H]3C[C@H](O)C(C)=C([C@@H](OC(C)=O)[C@H](OC(C)=O)[C@]2(C)[C@@H](OC(C)=O)C[C@@H]1O)C3(C)C  63.2 nM
22. CC(=O)O[C@H]1C(=O)[C@@]2(C)[C@H]([C@H](OC(=O)c3ccccc3)[C@]3(O)C[C@H](O)C(C)=C1C3(C)C)[C@]1(OC(C)=O)CO[C@@H]1C[C@@H]2O [BACCATIN III]  63.2 nM
23. CC(=O)O[C@@]12CO[C@@H]1C[C@H](O)[C@@]1(C)C(=O)[C@H](O)C3=C(C)[C@@H](OC(=O)[C@H](O)[C@@H](NC(=O)C4CCC4)c4ccccc4)C[C@@](O)([C@@H](OC(=O)c4ccccc4)[C@H]21)C3(C)C  66.1 nM
24. C=C1[C@@H](O)C[C@H](OC(C)=O)[C@@]2(C)[C@@H](OC(C)=O)[C@H](OC(C)=O)C3=C(C)C(=O)C[C@@H]([C@@H](OC(C)=O)[C@H]12)C3(C)C  66.1 nM
25. CCCCCC(=O)N[C@@H](c1ccccc1)[C@@H](O)C(=O)O[C@H]1C[C@@]2(O)[C@@H](OC(=O)c3ccccc3)[C@@H]3[C@]4(OC(C)=O)CO[C@@H]4C[C@H](O)[C@@]3(C)C(=O)[C@H](OC(C)=O)C(=C1C)C2(C)C [TAXOL C]  81.4 nM
26. CCCCCC(=O)N[C@@H](c1ccccc1)[C@@H](O)C(=O)O[C@H]1C[C@@]2(O)[C@@H](OC(=O)c3ccccc3)[C@@H]3[C@]4(OC(C)=O)CO[C@@H]4C[C@H](O)[C@@]3(C)C(=O)[C@@H](O)C(=C1C)C2(C)C  89.2 nM
27. CC(=O)O[C@@]12CO[C@@H]1C[C@H](O)[C@]1(C)[C@@H]2[C@H](OC(=O)c2ccccc2)[C@]2(O)CC(=O)C(C)=C([C@@H](O)[C@@H]1O)C2(C)C  100 nM
